A value given as a limit tells only on which side of the number the result lay.

The target in one test is T1, human estrogen receptor (Homo sapiens, UniProt P03372, G400V).
T1 sequence (P03372 1-595 G400V): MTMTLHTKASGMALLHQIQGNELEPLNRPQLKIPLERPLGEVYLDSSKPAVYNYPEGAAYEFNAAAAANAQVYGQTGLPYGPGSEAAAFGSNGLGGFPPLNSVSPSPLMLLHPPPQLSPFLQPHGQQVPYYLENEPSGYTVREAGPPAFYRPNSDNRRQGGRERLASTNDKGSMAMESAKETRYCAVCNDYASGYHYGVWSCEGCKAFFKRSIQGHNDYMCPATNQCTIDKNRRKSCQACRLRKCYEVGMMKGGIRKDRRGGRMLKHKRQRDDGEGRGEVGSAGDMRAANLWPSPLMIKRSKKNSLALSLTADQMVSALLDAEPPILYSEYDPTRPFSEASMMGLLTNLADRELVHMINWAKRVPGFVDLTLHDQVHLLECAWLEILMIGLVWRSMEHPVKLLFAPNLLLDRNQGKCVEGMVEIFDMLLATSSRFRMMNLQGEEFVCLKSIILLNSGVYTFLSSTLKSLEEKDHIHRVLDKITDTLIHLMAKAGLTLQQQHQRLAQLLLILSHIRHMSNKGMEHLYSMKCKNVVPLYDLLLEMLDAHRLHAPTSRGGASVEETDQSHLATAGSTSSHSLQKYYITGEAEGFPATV
Conditions: not given
In the case of 4-Hydroxytamoxifen, the “Percent Cross Reactivity” value is <0.25%.

Still in this test, the particulars now being: cross-activity determined at concentration of 50% maximum potency; 17-β Estradiol = 100.
As to `COc1cc2c(cc1O)CC[C@@H]1[C@@H]2CC[C@]2(C)C(=O)CC[C@@H]12` [2-Methoxyestrone], the “Percent Cross Reactivity” value was <0.25%.

`C[C@]12CC[C@@H]3c4ccc(O)cc4CC[C@H]3[C@@H]1C[C@@H](O)C2=O` [16-Hydroxyestrone]: the “Percent Cross Reactivity” value is 4.0%.

Take `C[C@]12CCC(=O)C=C1CC[C@@H]1[C@@H]2CC[C@]2(C)C(=O)CC[C@@H]12` [Androstenedione]: the “Percent Cross Reactivity” value is reported as <0.05%.

Consider `C[C@]12C[C@H](O)[C@H]3[C@@H](CCC4=CC(=O)CC[C@@]43C)[C@@H]1CC[C@@H]2C(=O)CO` [Corticosterone], for which the “Percent Cross Reactivity” value is listed as <0.025%.

`C#C[C@]1(O)CC[C@H]2[C@@H]3CCC4=Cc5oncc5C[C@]4(C)[C@H]3CC[C@@]21C` [Danasol]: the “Percent Cross Reactivity” value is <0.025%.

As to `C[C@]12CC[C@H](O)CC1=CC[C@@H]1[C@@H]2CC[C@]2(C)C(=O)CC[C@@H]12` [Dehydroepiandrosterone], the “Percent Cross Reactivity” value was <0.05%.

Consider `C[C@H]1CC(=O)C[C@@H]2CC[C@H]3[C@@H]4CC[C@H](O)[C@@]4(C)CC[C@@H]3[C@]21C` [Mesterolone], for which the “Percent Cross Reactivity” value is recorded as <0.05%.

Consider `CC(=O)[C@H]1CC[C@H]2[C@@H]3CCC4=CC(=O)CC[C@]4(C)[C@H]3CC[C@]12C` [Progesterone], for which the “Percent Cross Reactivity” value was <0.025%.

`C[C@]12CC[C@H]3[C@@H](CCC4=CC(=O)CC[C@@]43C)[C@@H]1CC[C@@H]2O` [Testosterone]: the “Percent Cross Reactivity” value is on record as <0.05%.
